Literature values, collected in publication PMC6962532 (Journal of the American Chemical Society, 2020).

Experiments:
AgrC-I = conditions: for activity of native AIP signal on AgrC-I: cross-group interaction
AgrC-II = conditions: cross-group interaction
AgrC-III = conditions: cross-group interaction

In the case of A-S-A-(C-A-A-Y-F) [AAA], the IC50 value (AgrC-I; AgrC-I, in words) is listed as “single-digit nanomolar”.
In the case of D-S-A-(C-A-S-Y-F) [AIP-I V3A], the “antagonism potency relative to t-AIP-I” value (AgrC-I; AgrC-I) is listed as “approximately four-fold more potent”.
In the case of D-S-V-(C-A-S-Y-F) [AIP-I], the “activity of native AIP signal on AgrC-II” value (AgrC-II) is listed as “inhibits” and the “activity of native AIP signal on AgrC-III” value (AgrC-III) is listed as “inhibits”.
For N-A-A-K-Y-N-P-(C-A-S-Y-L) [AIP-III], the “activity of native AIP signal on AgrC-I” value (AgrC-I) is listed as “inhibit”.
For N-A-S-K-Y-N-P-(C-S-N-Y-L) [AIP-II], the “activity of native AIP signal on AgrC-I” value (AgrC-I) is given as “inhibit”.
